In article PMC5054363 (Scientific Reports, 2016):
*1 amine or outer side, *2 acyl side, *3 side chain or, on linkers, in order; H or OH if unused. Where a SMILES comes first, the peptide text is derived from it. Bridges are numbered along the chain shown (N, C = ends). [ ]: non-standard residue; d: D form. The star is where a group is joined. X1 = CC[C@H](C)[C@@H](N[*:1])[C@@H](O)CC(=O)O[C@H](C(=O)[C@H](C)C(=O)[*:2])C(C)C; NMeY = CN[C@@H](Cc1ccc(O)cc1)C(=O)O; dNMeL = CN[C@H](CC(C)C)C(=O)O; Pyruvoyl = CC(=O)C(=O)*

Assays:
both eEF1A isoforms = details: cited from earlier work
Source text: (§1) Until now, very few chemical entities have been identified as modulators of eEF1A2. […] Other authors also reported the discovery of several flavonoids as well as phenanthridones (e.g ...

[1] = test system: subcellular and chromatographic fractions of K-562 cell lysate; assay: Binding of [14C]-plitidepsin to K-562 lysate fractions; details: 500 nM [14C]-plitidepsin with or without 10 μM unlabeled plitidepsin, 1 h, room temperature, subcellular fractions
Procedure: Figure 4 Identification of the plitidepsin-binding protein in a K-562 cells lysate. […] In the horizontal axis “P” and “S” mean “pellet” and “supernatant”, respectively, with the figure aside denoting the relative centrifugal force (in thousands of g) used to obtain such fraction. Data (in dpm per mg of protein) represent the mean of three independent samples with error bars showing S.D. * means p < 0.05. (C) Anion-exchange chromatography on DEAE, flow rate 5 mL/min. (D) Cation-exchange chromatography on SP, flow rate 2.5 mL/min. (E) Size exclusion chromatography on Superdex 200, flow rate 4 mL/min. Representative fractions (4-mL) from each portion of the eluates were analyzed for their binding to [^14C]-plitidepsin in the presence (grey bars, non-specific binding) or absence (black bars, total binding) of a 20-fold excess of unlabeled drug. Only fractions showing significant specific binding to the radioligand were pooled and progressed to the next chromatographic step. In all cases absorbance is expressed in mAU and conductivity in mS/cm.
The rest of the peptides detected in this material corresponded to fragments whose sequences are common to both isoforms, thus discarding the presence of any other protein.
After 1 h incubation at room temperature 400 μL of each tube were withdrawn and processed as described above.

[2] = biological target: eEF1A1 purified from rabbit liver (Oryctolagus cuniculus, UniProt P68105); details: saturation binding, [14C]-plitidepsin, 1 h, room temperature, triplicate, Swillens fit (Supplementary Figure 4)
Chain of eEF1A1 purified from rabbit liver (P68105 whole entry): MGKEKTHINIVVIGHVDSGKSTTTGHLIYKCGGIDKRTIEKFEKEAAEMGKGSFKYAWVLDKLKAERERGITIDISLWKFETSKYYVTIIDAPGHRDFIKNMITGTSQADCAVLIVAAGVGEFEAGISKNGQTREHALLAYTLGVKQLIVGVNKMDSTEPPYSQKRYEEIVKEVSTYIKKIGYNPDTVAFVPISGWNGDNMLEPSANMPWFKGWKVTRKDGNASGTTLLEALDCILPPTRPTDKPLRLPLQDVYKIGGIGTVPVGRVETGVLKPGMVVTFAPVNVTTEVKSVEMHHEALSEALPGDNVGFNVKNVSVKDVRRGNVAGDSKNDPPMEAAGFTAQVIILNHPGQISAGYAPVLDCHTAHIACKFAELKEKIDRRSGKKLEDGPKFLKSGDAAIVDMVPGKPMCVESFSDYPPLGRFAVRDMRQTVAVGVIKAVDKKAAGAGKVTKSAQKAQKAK
Procedure: All samples in binding assays were tested in triplicate. […] After 1 h incubation at room temperature, 450 μL were withdrawn, filtered through GF/C filters (Millipore, Bedford, CA) and washed three times with the same buffer used for the incubation. Filters were then removed, dried and their radioactivity was finally counted as a measurement of total (specific and non-specific) bound drug. […] Scintillation counting was transformed into concentration values considering the specific activity of the radioligand and the sample volume. The concentration of bound radioligand was related to the total amount of radioligand in the sample using the expression derived by Swillens[12] to account for ligand depletion when the concentration of protein was similar to that of radioligand:
was purified from rabbit liver as described in ( 48) . Protein and radioligand wer e
incubated for 1 h at room temperature and samples were processed as described in the

[3] = biological target: EF1A isolated from rabbit reticulocytes; details: cited from earlier work
Source text: as §1

eEF1A-ribosome complex = details: binding to the eEF1A-ribosome complex; cited from earlier work
Source text: as §1

protein synthesis = details: cited from earlier work

O=C1N[C@@H]2C(=C[C@H](O)[C@@H](O)[C@H]2O)c2cc3c(c(O)c21)OCO3 [narciclasine]
binding to eEF1A isoforms (both eEF1A isoforms): selectively bind to both eEF1A isoforms

O=C1N[C@H]2[C@H](O)[C@H](O)[C@@H](O)[C@H](O)[C@@H]2c2cc3c(c(O)c21)OCO3 [pancratistatine]
binding to eEF1A isoforms (both eEF1A isoforms): selectively bind to both eEF1A isoforms

CC[C@H](C)[C@H]1NC(=O)[C@@H](NC(=O)[C@@H](CC(C)C)N(C)C(=O)[C@@H]2CCCN2C(=O)C(C)=O)[C@@H](C)OC(=O)[C@H](Cc2ccc(OC)cc2)N(C)C(=O)[C@@H]2CCCN2C(=O)[C@H](CC(C)C)NC(=O)[C@@H](C)C(=O)[C@H](C(C)C)OC(=O)C[C@@H]1O [[^14C]-plitidepsin] (Pyruvoyl-P[dNMeL]T[X1]LP[NMeY](Me); ester 3-C (inferred))
binding to pellets ([1]; pellets): non-specifically | binding to soluble fractions ([1]; soluble): retained by the soluble fractions | Kd [2]: 0.183 ± 0.032 µM

didemnin B
Kd ([3]; binding to EF1A): 200 µM | interaction with eEF1A ([3]; isoform not specified): interact with eEF1A | Kd (eEF1A-ribosome complex): 4 µM | protein synthesis inhibition (protein synthesis): only at μM concentrations
